Results taken from US12215106B2, “Pharmaceutical compounds and therapeutic methods” (RUTGERS, THE STATE UNIVERSITY OF NEW JERSEY, priority 2018, dated 2025).
Where a name gives a salt, the structure may show the parent alone.

Columns and labels:
BMI1 = experiment: Western blotting of BMI1 protein levels in GBM spheres; assay type: cell-based, human; details: for BMI1 levels: GBM spheres, 72 hours, Western blotting
Experimental: Different GBM cells were treated with DMSO or different concentrations of test compounds for 72 hours. Cells were lysed in Cell Lysis Buffer (Cell Signaling, #9803) supplemented with Protease Inhibitor Cocktail (Sigma, #P8340), spun down for 30 minutes at 4° C., after which the supernatant was collected at every time point indicated. Western blotting analysis was performed on all samples as described above. BMI1 loss started at 6-12 hours, coinciding with an upper shift and hyper-phosphorylation of BMI1 at 12-24 hours and complete depletion at 72 hours.
GBM cells were treated with DMSO or different concentrations of the test compounds for 72 hours. Cells were lysed in Cell Lysis Buffer (Cell Signaling, #9803) supplemented with Protease Inhibitor Cocktail (Sigma, #P8340), sonicated briefly while on ice and spun down for 30 minutes at 4° C., after which the supernatant was collected. For each sample, 2 uL of lysate was mixed well into 198 uL de-ionized water. Next, 10 uL of this diluted sample was added to a well in a 96 well plate in quadruplets and mixed with Protein Assay Dye Reagent Concentrate (Bio-Rad, #500-0006) (which was diluted 1:5 with water). BSA standards of 25 ng, 50 ng, 100 ng, 200 ng and 250 ng were also used to the plate and mixed with the reagent. The plate was read in a plate reader at 600 nm and samples were calibrated to the standards to determine the concentration of protein. Using the NuPAGE system (Invitrogen), 25 ug of protein was mixed with NuPAGE LDS 4× Sample Buffer (#NP0007), NuPAGE 10× Reducing Agent (#NP0004) and water, mixed well and heated at 96° C. for 15 minutes to denature the protein. The samples were then loaded into 4-12% Bis-Tris gels (Novex (Invitrogen), #0323) with a protein ladder (Novex (Invitrogen) Sharp Pre-stained protein ladder, #57318) and run at 100-120V for about 2 hours with NuPAGE 20×SDS MES Running Buffer (#NP0002) diluted with water. Next, the gel was taken out and loaded into a NuPAGE transfer cassette with a polyvinylidene membrane with NuPAGE 20× Transfer Buffer (#NP0006-1) diluted with water and methanol. Proteins were transferred for 1 hour at 30V at room temperature. Blocking was performed using the Millipore SNAP i.d. Protein Detection system in 0.25% non-fat dry milk in 0.1% Tween in PBS (PBST). […] Protein signals were detected using ECL Western Blotting Substrate (Pierce, #32106) and filmed.
BMI1 levels in GBM spheres were then analyzed by Western Blotting over a time-course of 120 hours upon treatment with compound 14 at 7-10 nM conc. […]

phospho-RB = experiment: Western blotting of phospho-RB levels in GBM spheres; assay type: cell-based, human; details: for phospho-RB (pRB) levels: GBM spheres, 72 hours, Western blotting
Experimental: Cells were lysed in Cell Lysis Buffer (Cell Signaling, #9803) supplemented with Protease Inhibitor Cocktail (Sigma, #P8340), sonicated briefly while on ice and spun down for 30 minutes at 4° C., after which the supernatant was collected. For each sample, 2 uL of lysate was mixed well into 198 uL de-ionized water. Next, 10 uL of this diluted sample was added to a well in a 96 well plate in quadruplets and mixed with Protein Assay Dye Reagent Concentrate (Bio-Rad, #500-0006) (which was diluted 1:5 with water). BSA standards of 25 ng, 50 ng, 100 ng, 200 ng and 250 ng were also used to the plate and mixed with the reagent. The plate was read in a plate reader at 600 nm and samples were calibrated to the standards to determine the concentration of protein. Using the NuPAGE system (Invitrogen), 25 ug of protein was mixed with NuPAGE LDS 4× Sample Buffer (#NP0007), NuPAGE 10× Reducing Agent (#NP0004) and water, mixed well and heated at 96° C. for 15 minutes to denature the protein. The samples were then loaded into 4-12% Bis-Tris gels (Novex (Invitrogen), #0323) with a protein ladder (Novex (Invitrogen) Sharp Pre-stained protein ladder, #57318) and run at 100-120V for about 2 hours with NuPAGE 20×SDS MES Running Buffer (#NP0002) diluted with water. Next, the gel was taken out and loaded into a NuPAGE transfer cassette with a polyvinylidene membrane with NuPAGE 20× Transfer Buffer (#NP0006-1) diluted with water and methanol. Proteins were transferred for 1 hour at 30V at room temperature. Blocking was performed using the Millipore SNAP i.d. Protein Detection system in 0.25% non-fat dry milk in 0.1% Tween in PBS (PBST). Primary antibodies against BMI1 (Cell Signaling, #6964), mouse monoclonal antiphospho-RB, anti-CDK4, anti-STAT1, anti-PD-L1 (1:1,000) (Millipore), and housekeeping control rabbit polyclonal anti-vinculin (1:1000) (Cell Signaling) were incubated overnight with gentle rocking at 4° C. in the blocking solution. The following day, membranes were washed 3 times with PBST in the SNAP i.d. system before being incubated with secondary antibody in blocking buffer for 1 hour at room temperature. Three washes were then performed in the SNAP i.d. system. Protein signals were detected using ECL Western Blotting Substrate (Pierce, #32106) and filmed.
GBM CSCs are known to be quiescent and therefore resistant to standard chemo/radiotherapy. The retinoblastoma (Rb) tumor suppressor protein regulates cell proliferation by controlling progression through the restriction point within the G1-phase of the cell cycle. Cell cycle-dependent phosphorylation for Ser780 by cyclin D1-CDK4/6 inhibits Rb target binding and allows cell cycle progression.

Row | Compound | BMI1 protein levels, time-course (BMI1; 7-10 nM, single treatment, time-course of 120 hours) | BMI1 levels (BMI1) | phospho-RB levels, time-course (phospho-RB; 7-10 nM, time-course of 120 hours) | phospho-RB (pRB) levels (phospho-RB)
1 | COc1c(F)cc(Nc2nc(-c3c(C)nc4ccccn34)cs2)cc1F [Compound 14, hydrochloride] | reduction in BMI1 protein levels at 72, 96 and 120 hours | Lowered BMI1 levels | downregulation of phospho-RB levels | lowered pRB
2 | [2H]C([2H])([2H])Oc1ccc(Nc2nc(-c3c(C)nc4ccccn34)cs2)cc1 [Compound 15, N-(4-(methoxy-d3)phenyl)-4-(2-methylimidazo[1,2-c]pyridin-3-yl)thiazol-2-amine hydrochloride] |  | slightly lowered BMI1 levels |  | lowered pRB
3 | [2H]C1([2H])Oc2ccc(Nc3nc(-c4c(C)nc5ccccn45)cs3)cc2O1 [Compound 17, N-(benzo[d][1,3]dioxol-5-yl-2,2-d2)-4-(2-methylimidazo[1,2-c]pyridin-3-yl)thiazol-2-amine hydrochloride] |  | Lowered BMI1 levels |  | lowered pRB
